Assay results: patent US20120136046A1, “METHOD OF TREATING AGE RELATED DISORDERS” (Chronos Therapeutics Limited, priority 2009, published 2012)

What was measured:
S. cerevisiae = test: Chronological lifespan of yeast, outgrowth method (Bioscreen C); type: cell-based; settings: FIG. 4
Experimental: Lifespan was measured using the outgrowth method described by Murakami, C. and Kaeberlein, M., (2009) J. Vis. Exp, 27. Briefly, chronological lifespan of yeast refers to the profile of viability of an ageing yeast culture over time. To measure this a yeast culture is grown in liquid media until the glucose carbon source is exhausted and the cells stop dividing. At this point the proportion of cells which are alive and able to divide is measured by observing the outgrowth characteristics of a fresh inoculate of the ageing culture using a Bioscreen™ C machine (Oy Growth Curves Ab Ltd, Finland). Viabilities at various time points are compared to determine the chronological lifespan of the culture.

[1] = system: MRC5 human fibroblast cell line; test: Cell division rate / replicative lifespan of MRC5 fibroblasts; type: cell-based
Experimental: The cell division rate was measured using the method of Fairweather, D. S., M. Fox, and G. P. Margison, (1987), Exp Cell Res, 168(1): p. 153-9. Briefly, the replicative lifespan of MRC5 cells are measured by growing them on the surface of dishes until the reach confluencey whereupon they are split at a 1:2 ratio (i.e. diluted 1 in 2). The number of times the culture is split is equal to that of the number of divisions the cells are able to undertake which is the cultures replicative lifespan. MRC5 cells are only able to divide a finite number of times, and as they reach the end of their life the time they take to undergo cell division increases. In this instance the rate of cell division is used as a measure of age.

C. elegans = C. elegans lifespan, percentage of living worms over time; type: in vivo; settings: FIG. 5
Experimental: FK-506 was added to C. elegans during the timed egg laying stage and lifespan was measured as described in Sutphin, G. L., and Kaeberlein, M., (2009) J. Vis. Exp, 27. Briefly this method comprises synchronising a population of worms and measuring the percentage of living worms at a range of time points, scoring live worms by their ability to respond to physical stimulus.

## C=CC[C@@H]1/C=C(\C)C[C@H](C)C[C@H](OC)[C@H]2O[C@@](O)(C(=O)C(=O)N3CCCC[C@H]3C(=O)O[C@H](/C(C)=C/[C@@H]3CC[C@@H](O)[C@H](OC)C3)[C@H](C)[C@@H](O)CC1=O)[C@H](C)C[C@@H]2OC [FK-506, fujimycin]
S. cerevisiae; 0.1 ng/ml in the culture medium
  effect on the chronological lifespan of the cells compared to the control: no significant effect
S. cerevisiae; 1 ng/ml or more in the culture medium
  effect on the median lifespan of the yeast cells compared to the control: significant effect increasing the median lifespan
[1]; MRC5 cells, FIG. 6
  age dependent reduction in cell division rate: appears to reverse age dependent reduction in cell division rate
[1]; MRC5 cells, addition after 39 divisions
  division time compared to a control having no FK-506 added: reduction of the division time
[1]; higher concentrations
  toxicity to the cells: becomes toxic to the cells
C. elegans; added during the timed egg laying stage
  lifespan of C. elegans: prolongs the lifespan of C. elegans in a dose dependent manner
C. elegans; addition of 4μ/ml
  viability of the organisms (chronological lifespan): significant increase in the viability
